# According to paper PMC9856044 (Biomolecules, 2023):
# How the values were obtained:
# poly(dAdT)2 (AT-DNA) = test: Thermal melting of AT-DNA; type: binding; details: r [compound]/[nucleotide phosphate] = 0.1
# Protocol: Thermal melting curves for DNA, RNA and their complexes with studied compounds were determined as previously described by following the absorption change at 260 nm as a function of temperature. The absorbance of the ligands was subtracted from every curve and the absorbance scale was normalized. Tm values are the midpoints of the transition curves determined from the maximum of the first derivative and checked graphically by the tangent method. The ∆Tm values were calculated by subtracting Tm of the free nucleic acid from Tm of the complex. Every ∆Tm value here reported was the average of two measurements. The error in ∆Tm is ±0.5 °C. 5′-AGGG(TTAGGG)3–3′(Tel22) was obtained from IDT (Integrated DNA Technologies, Coralville, IA, USA). Tel22 was dissolved in 0.1 M either in sodium cacodylate or potassium phosphate buffer. The starting Tel22 oligonucleotide solution was first heated up to 95 °C for 10 min, then slowly cooled to 10 °C at the cooling rate of 1 °C/min to allow DNA oligonucleotide to adopt a G-quadruplex structure. The G-quadruplex structure was confirmed by thermal melting and CD spectra. The concentration of G quadruplex was expressed in terms of oligonucleotide structure. In fluorimetric titrations, aliquots of Tel 22 solution were added to the solution of ligands (c ~ 2 × 10^−7 M, in SI).
# Binding abilities of 1–6 compounds were further explored by thermal melting experiments. […]
# poly A–poly U (AU-RNA) = test: Fluorimetric titration with AU-RNA; type: binding
# Protocol: Materials. Polynucleotides were purchased as noted: poly A–poly U, calf thymus ctDNA, poly(dAdT)2 and poly(dGdC)2 (Sigma-Aldrich, St. Louis, MI, USA). Polynucleotides were dissolved in Na-cacodylate buffer, I = 0.05 mol dm^−3, pH = 7.0. The calf thymus ctDNA was additionally sonicated and filtered through a […]. Polynucleotide concentration was determined spectroscopically as the concentration of phosphates. Spectrophotometric titrations were performed at pH = 7.0 (I = 0.05 mol dm^−3, sodium cacodylate buffer) by adding aliquots of polynucleotide solution into the solution of the studied compound for fluorimetric experiments and CD experiments were done by adding aliquots of the compound stock solution into the solution of a polynucleotide. In fluorimetric experiments, an excitation wavelength of λexc = 425, 431, 423, 427, 406 and 407 nm, respectively, was used to avoid the inner filter effect caused due to increasing absorbance of the polynucleotide. Emission was collected in the range λem = 400–700 nm. Values for Ka obtained by processing titration data using the Scatchard equation [27], all have satisfactory correlation coefficients (≥0.98). Furthermore, linear changes were evident with increasing DNA or RNA concentration in most titrations. The exceptions to this were titrations of cyanine 3 with GC-DNA and titrations of dye 5 with ds-DNA and ds-RNA where sufficient data points in the non-linear part of the curve allowed estimation of binding affinity (Ka values were of the order 10^5 mol^−1 dm^−3; Figures S16, S22 and S23 in SI). Titration data were collected at a high excess of polynucleotide binding sites (r[1–6]/[nucleotide phosphate] < 0.1; see Figures S9–S26 in SI) where each molecule can bind to a separate binding site. Binding affinities of dye-DNA/RNA complexes were calculated by non-linear fitting using the Scatchard equation [27, 33]. The fluorescence changes of dye 5 in the titration with AT-DNA were too small to obtain an accurate binding constant (Figure S21 in SI).
smiles,measurement,setting,value
"C[n+]1c(/C=C2\Sc3ccccc3N2CCCS)[se]c2ccccc21 [Compound 5, 2-((3-(3-mercaptopropyl)benzo[d]thiazol-2(3H)-ylidene)methyl)-3-methylbenzo[d][1,3]selenazol-3-ium methosulphate]",∆Tm value,poly(dAdT)2 (AT-DNA),4 °C
same,log Ka,poly A–poly U (AU-RNA); AU-RNA,5
same,Ka (order of magnitude),"poly A–poly U (AU-RNA); ds-RNA (AU-RNA), sodium cacodylate buffer, pH 7.0, I = 0.05 mol dm^−3, Scatchard equation",~10^5 mol^−1 dm^−3
same,K (fit parameter of titration curve),"poly A–poly U (AU-RNA); poly A – poly U, pH=7.0, sodium cacodylate buffer, I = 0.05 mol dm-3",133756.34591 ±30379564.80418
